The target of test [1] is T1, 5-HT4 receptor (Cavia porcellus, UniProt O70528).
T1 construct: striatum was isolated which was cryopreserved at −80° C. until use; from tissue; host or cells: guinea pig (Slc-Hartley) striatum membranes
The experiment in a line: Test Example 3: Guinea pig 5-HT4 receptor binding assay, [3H]-GR113808, striatum membranes (Table 98). The method, boiled down:
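Striatal membranes from Slc-Hartley guinea pigs were incubated with 0.1 nM [3H]-GR113808 and test compounds in 50 mM Hepes pH 7.4 at 37° C for 30 min; nonspecific binding was defined with 30 μM serotonin. Bound radioactivity was collected by filtration, and IC50 was derived from inhibition of specific binding.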

For test [2], the target named is T2, human 5-HT4b receptor (Homo sapiens, UniProt Q13639).
T2 construct: expressed in transfected cells; host or cells: CHO cells (G418 selection)
T2 sequence (Q13639 whole entry): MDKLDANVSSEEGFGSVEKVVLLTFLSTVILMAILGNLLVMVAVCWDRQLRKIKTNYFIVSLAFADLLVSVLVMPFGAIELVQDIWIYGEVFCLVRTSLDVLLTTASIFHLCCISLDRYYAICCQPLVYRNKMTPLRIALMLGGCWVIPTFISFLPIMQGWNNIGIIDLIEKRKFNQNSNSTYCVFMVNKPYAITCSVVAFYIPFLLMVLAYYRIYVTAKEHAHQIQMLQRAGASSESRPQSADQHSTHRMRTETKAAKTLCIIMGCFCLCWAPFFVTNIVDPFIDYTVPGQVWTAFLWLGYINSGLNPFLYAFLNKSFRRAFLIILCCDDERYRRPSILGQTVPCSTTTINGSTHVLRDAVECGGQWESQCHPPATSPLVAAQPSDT
Nature of the test: Test Example 4: Serotonin 4 (5-HT4) receptor agonist activity assay, cAMP HTRF in CHO cells (Table 100). Particulars: mean value; for Emax: CHO, 0.25 h, intrinsic activity, maximal activity of 5-HT defined as 100%, read-out: IA (%); for pEC50: concentration showing 50% of IA. In kind it is cell-based. On the procedure: The cAMP measurement test used herein was carried out by using CISBIO HTRF (trademark) cAMP Hirange kit according to the manufacturer's instructions attached therewith.
CHO cells expressing human 5-HT4b receptor were incubated in Medium 1 [DMEM/1% NEAA, 1% penicillin/streptomycin (P/S), 0.2 mg/mL GENETICIN (G418), 10% FBS] at 37° C. under 5% CO2 condition. Then, the cells were put into Medium 2 (DMEM/10000 cut FBS, G-418, P/S, NEAA) for 1 to 2 hours, and collected by treating with trypsin containing EDTA. The collected cells were suspended in Assay Buffer 1 [100 mM Hanks/HEPES buffer (pH 7.4)], the suspended cells were mixed with the testing compound on 384-well plates, and the cells were incubated at 31° C. for 15 minutes. To the cells were added cAMP-cryptate solution and cAMP-d2 solution, and they were incubated at room temperature for 1 hour. Then, time-resolved fluorescence was measured by En Vision (excitation wavelength: 330 nm, fluorescence wavelength: 620/665 nm).
An intrinsic activity of the compound [IA (%)] and a concentration showing 50% of IA [EC50 (nM)] were calculated from the obtained results. In particular, the intrinsic activity (IA) was calculated on the basis of the maximal activity of 5-HT (measured from 10^−11 M to 10^−7 M) defined as 100%.
In the following table, the compounds used in the test are shown in numbers which correspond to the Example numbers above where the preparations of the compounds are described.

[3] abbreviates: Guinea pig 5-HT4 receptor binding assay, [3H]-GR113808, striatum membranes, mean value of each group, read-out: IC50.

pEC50, pIC50: −log10 of the molar value. Counter-ions that a name gives are not always drawn. Like-named read-outs stand apart in the source and are kept apart here.

For orientation: pIC50 means the IC50 on a negative log10 scale, so that one unit is a factor of ten. One may read the pEC50 as the EC50 on a negative log10 scale, so that one unit is a factor of ten. Higher therefore signals a small EC50.

T1 sequence (O70528 whole entry): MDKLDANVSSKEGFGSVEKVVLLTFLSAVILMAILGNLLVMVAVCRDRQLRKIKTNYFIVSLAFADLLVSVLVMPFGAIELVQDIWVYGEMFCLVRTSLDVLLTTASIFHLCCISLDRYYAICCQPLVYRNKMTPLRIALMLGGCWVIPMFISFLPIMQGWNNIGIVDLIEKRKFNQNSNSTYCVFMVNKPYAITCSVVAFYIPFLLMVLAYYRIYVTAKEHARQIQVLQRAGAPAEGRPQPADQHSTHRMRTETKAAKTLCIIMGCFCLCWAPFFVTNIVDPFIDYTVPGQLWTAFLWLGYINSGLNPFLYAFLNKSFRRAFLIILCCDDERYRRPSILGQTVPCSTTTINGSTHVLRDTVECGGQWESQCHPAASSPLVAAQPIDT

As for `CC(C)c1nn(-c2noc(C3CCN([C@H]4C[C@H]5CC[C@@H](C4)N5C(=O)CO)CC3)n2)c2c(F)cccc12` [Example 532, 1-[(3-endo)-3-(4-{3-[7-fluoro-3-(propan-2-yl)-1H-indazol-1-yl]-1,2,4-oxadiazol-5-yl}piperidin-1-yl)-8-azabicyclo[3.2.1]oct-8-yl]-2-hydroxyethanone], the pIC50 in test [1] was more than 7.70. For the same molecule, in test [2], the Emax was 99% and the pEC50 is 8.30.
Turning to `CCc1nn(-c2noc(C3CCN(C4CCN(S(C)(=O)=O)CC4)CC3)n2)c2c(F)cccc12` [Example 241, 4-[3-(3-ethyl-7-fluoro-1H-indazol-1-yl)-1,2,4-oxadiazol-5-yl]-1′-(methylsulfonyl)-1,4′-bipiperidine], the pIC50 in test [1] (setting [3]) is more than 7.70. Besides, in test [2], the Emax worked out at 58.8% and the pEC50 is 8.49.
On the same counts, the results for `CCc1nn(-c2noc(C3CCN(C4CCCC4)CC3)n2)c2c(F)c(F)ccc12` [Example 447, 1-[5-(1-cyclopentylpiperidin-4-yl)-1,2,4-oxadiazol-3-yl]-3-ethyl-6,7-difluoro-1H-indazole-trifluoroacetate] are more than 7.70, 56.8% and 7.91.
The corresponding values for `CCc1nn(-c2noc(C3CCN(C(C)C)CC3)n2)c2c(F)c(F)ccc12` [Example 445, 3-ethyl-6,7-difluoro-1-{5-[1-(propan-2-yl)piperidin-4-yl]-1,2,4-oxadiazol-3-yl}-1H-indazole trifluoroacetate] are more than 7.70, 52.1% and 7.88.
On the same counts, the results for `CC(=O)N1CC(CN2CCC(c3nc(-n4nc(C(C)C)c5cccc(F)c54)no3)CC2)C1` [Example 219, 1-{3-[(4-{3-[7-fluoro-3-(propan-2-yl)-1H-indazol-1-yl]-1,2,4-oxadiazol-5-yl}piperidin-1-yl)methyl]azetidin-1-yl}ethanone hydrochloride] are more than 7.70, 96.9% and 8.55.
For the molecule `CCc1nn(-c2noc(C3CCN(C[C@H]4CCN(S(C)(=O)=O)C4)CC3)n2)c2c(F)cccc12` [Example 216, 3-ethyl-7-fluoro-1-[5-(1-{[(3R)-1-(methylsulfonyl)pyrrolidin-3-yl]methyl}piperidin-4-yl)-1,2,4-oxadiazol-3-yl]-1H-indazole], in test [1] (setting [3]), the negative logarithm of the IC50 (pIC50) is more than 7.70. Further, in test [2], the Emax was 62.3% and the pEC50 was 8.34.
In test [1], `CC(C)c1nn(-c2noc(C3CCN([C@@H]4C[C@H]5CC[C@@H](C4)N5C(=O)CO)CC3)n2)c2c(F)cccc12` [Example 533, 1-[(3-exo)-3-(4-{3-[7-fluoro-3-(propan-2-yl)-1H-indazol-1-yl]-1,2,4-oxadiazol-5-yl}piperidin-1-yl)-8-azabicyclo[3.2.1]oct-8-yl]-2-hydroxyethanone] gave a pIC50 of more than 7.70. Also, in test [2], the Emax amounted to 102% and the pEC50 was 8.42.
Consider `CCc1nn(-c2noc(C3CCN(C4CCN(C(=O)OC)CC4)CC3)n2)c2c(F)c(F)ccc12` [Example 459, methyl 4-[3-(3-ethyl-6,7-difluoro-1H-indazol-1-yl)-1,2,4-oxadiazol-5-yl]-1,4′-bipiperidine-1′-carboxylate trifluoroacetate], for which, in test [1] (setting [3]), the pIC50 is more than 7.70. In test [2], the Emax turned out to be 68.2% and the negative logarithm of the EC50 (pEC50) is 8.12.
Take `CCc1nn(-c2noc(C3CCN(CC4CN(C(C)=O)C4)CC3)n2)c2c(F)c(F)ccc12` [Example 468, 1-[3-({4-[3-(3-ethyl-6,7-difluoro-1H-indazol-1-yl)-1,2,4-oxadiazol-5-yl]piperidin-1-yl}methyl)azetidin-1-yl]ethanone trifluoroacetate]: the pIC50 in test [1] (setting [3]) was more than 7.70. Moreover, in test [2], the Emax stood at 69.8% and the pEC50 is 7.65.
On the same counts, the results for `COC(=O)N1CCC(CN2CCC(c3nc(-n4nc(C(C)C)c5ccc(F)c(F)c54)no3)CC2)CC1` [Example 482, methyl 4-[(4-{3-[6,7-difluoro-3-(propan-2-yl)-1H-indazol-1-yl]-1,2,4-oxadiazol-5-yl}piperidin-1-yl)methyl]piperidine-1-carboxylate trifluoroacetate] are 7.63, 70.5% and 8.05.
Consider `CC(C)c1nn(-c2noc(C3CCN(C4CCN(C(=O)CO)CC4)CC3)n2)c2ccccc12` [Example 519], for which the pIC50 in test [1] (setting [3]) was 7.57. In test [2], the Emax stood at 81.1% and the pEC50 is 7.47.
On the same counts, the results for `CCc1nn(-c2noc(C3CCN(C[C@@H]4CCN(C(C)=O)C4)CC3)n2)c2c(F)cccc12` [Example 201, 1-[(3S)-3-({4-[3-(3-ethyl-7-fluoro-1H-indazol-1-yl)-1,2,4-oxadiazol-5-yl]piperidin-1-yl}methyl)pyrrolidin-1-yl]ethanone] are more than 7.70, 39.7% and 8.17.
On the same counts, the results for `COCC(=O)N1CC(CN2CCC(c3nc(-n4nc(C(C)C)c5ccc(F)c(F)c54)no3)CC2)C1` [Example 473, 1-{3-[(4-{3-[6,7-difluoro-3-(propan-2-yl)-1H-indazol-1-yl]-1,2,4-oxadiazol-5-yl}piperidin-1-yl)methyl]azetidin-1-yl}-2-methoxyethanone trifluoroacetate] are 7.62, 58.5% and 7.64.
On the same counts, the results for `CC(C)c1nn(-c2noc(CCCN3CCCCC3)n2)c2c(F)cccc12` [Example 394, 7-fluoro-1-{5-[3-(piperidin-1-yl)propyl]-1,2,4-oxadiazol-3-yl}-3-(propan-2-yl)-1H-indazole] are more than 7.70, 101% and 8.51.
Take `CCc1nn(-c2noc(C3CCN(C4CCN(C(=O)COC)CC4)CC3)n2)c2c(F)cccc12` [Example 237, 1-{4-[3-(3-ethyl-7-fluoro-1H-indazol-1-yl)-1,2,4-oxadiazol-5-yl]-1,4′-bipiperidin-1′-yl}-2-methoxyethanone hydrochloride]: the pIC50 in test [1] (setting [3]) is more than 7.70. In addition, in test [2], the Emax was 51.9% and the pEC50 was 8.01.
On the same counts, the results for `COCC(=O)N1CCC(CN2CCC(c3nc(-n4nc(C(C)C)c5ccc(F)c(F)c54)no3)CC2)CC1` [Example 481, 1-{4-[(4-{3-[6,7-difluoro-3-(propan-2-yl)-1H-indazol-1-yl]-1,2,4-oxadiazol-5-yl}piperidin-1-yl)methyl]piperidin-1-yl}-2-methoxyethanone trifluoroacetate] are more than 7.70, 73.8% and 8.15.
The corresponding values for `CCc1nn(-c2noc(C3CCN(CC4CN(C(C)=O)C4)CC3)n2)c2c(F)cccc12` [Example 223, 1-[3-({4-[3-(3-ethyl-7-fluoro-1H-indazol-1-yl)-1,2,4-oxadiazol-5-yl]piperidin-1-yl}methyl)azetidin-1-yl]ethanone hydrochloride] are more than 7.70, 72.7% and 8.47.
The corresponding values for `CCc1nn(-c2noc(C3CCN(C4CCOCC4)CC3)n2)c2c(F)c(F)ccc12` [Example 448, 3-ethyl-6,7-difluoro-1-{5-[1-(tetrahydro-2H-pyran-4-yl)piperidin-4-yl]-1,2,4-oxadiazol-3-yl}-1H-indazole trifluoroacetate] are more than 7.70, 57.5% and 8.05.
Regarding `CC(=O)N1CC(CN2CCC(c3nc(-n4nc(C(C)C)c5ccccc54)no3)CC2)C1` [Example 467, 1-{3-[(4-{3-[3-(propan-2-yl)-1H-indazol-1-yl]-1,2,4-oxadiazol-5-yl}piperidin-1-yl)methyl]azetidin-1-yl}ethanone trifluoroacetate], the pIC50 in test [1] (setting [3]) was 7.09. Besides, in test [2], the Emax stood at 72.5% and the pEC50 was 8.16.
The corresponding values for `CCc1nn(-c2noc(C3CCN(C4CCN(C(C)=O)CC4)CC3)n2)c2c(F)c(F)ccc12` [Example 460, 1-{4-[3-(3-ethyl-6,7-difluoro-1H-indazol-1-yl)-1,2,4-oxadiazol-5-yl]-1,4′-bipiperidin-1′-yl}ethanone trifluoroacetate] are more than 7.70, 78.6% and 8.28.
As to `CCc1nn(-c2noc(C3CCN(C[C@H]4CCN(C(=O)COC)C4)CC3)n2)c2c(F)cccc12` [Example 210, 1-[(3R)-3-({4-[3-(3-ethyl-7-fluoro-1H-indazol-1-yl)-1,2,4-oxadiazol-5-yl]piperidin-1-yl}methyl)pyrrolidin-1-yl]-2-methoxyethanone hydrochloride], the pIC50 in test [1] (setting [3]) is more than 7.70. For the same molecule, in test [2], the Emax is 68.6% and the pEC50 is 8.30.

Source of the values: patent US20140057895A1, “INDAZOLE- AND PYRROLOPYRIDINE-DERIVATIVE AND PHARMACEUTICAL USE THEREOF” (priority 2011, published 2014).
